The text below walks through data of PMC2724550, “Citrus auraptene suppresses cyclin D1 and significantly delays N-methyl nitrosourea induced mammary carcinogenesis in female Sprague-Dawley rats” (BMC Cancer, 2009).

Series [1] can be described thus: Tissue extraction and HPLC-fluorescence analysis of auraptene in rat tissues. The series is classed as in vivo, female Sprague-Dawley rats. The conditions noted are these: for average concentration in normal mammary glands: means ± S.E. On the procedure:
The concentration of auraptene was measured in mammary glands, livers and tumors of rats. The specimens from the animals were weighed and minced on a glass plate kept on ice. The minced sample was added to 0.05 M Tris buffer, pH 7.4, containing 0.25 M sucrose in 1 ml. To 1 ml of this homogenized sample, 80 μL of 100 μM curcumin was added as internal standard followed by vortexing. The sample was then extracted twice with ethyl acetate: acetone (2:1 v/v). The combined supernatant was then dried under N2 gas, resuspended in 1 mL 70% methanol/H2O and analyzed by HPLC (Shimadzu, SIL-10AF) with UV (254 nm) and fluorescence detection (Shimadzu, RF-535) at excitation and emission wavelengths of 329 nm and 390 nm respectively. The flow rate in HPLC was 1 ml/min with C18*5μ column. The mobile phase started with 80% methanol in water up to 20 minutes and was increased in a linear gradient up to 100% methanol over the next 5 minutes. Under these conditions, auraptene eluted at 14 minutes and curcumin at 6 minutes. The ratio of area under the curve for auraptene at different concentrations to that of curcumin was plotted to make the standard curve. The concentration of auraptene in the specimens was calculated from the standard curve. For the calculation of concentration, 1 gm of the tissue was assumed to occupy a volume of 1 ml.
Figure 6 Concentrations of auraptene in rat tissues from the tumor study. The rat mammary glands, tumors and livers were weighed and homogenized. To the homogenate 80 μL of 100 μM curcumin was added as internal standard and extracted twice with ethyl acetate: acetone mixture (2:1 v/v). The extract was dried and resuspended in 1 mL 70% methanol/H2O and analyzed by HPLC (Shimadzu, SIL-10AF) with UV (254 nm) and fluorescence detection (Shimadzu, RF-535) at excitation and emission wavelengths of 329 nm and 390 nm respectively.

Series [2] is described as follows: Rat body weight and gross behavior in the tumor study. The series is classed as in vivo, female Sprague-Dawley rats. An excerpt: Rats (28 days of age) were divided up randomly into groups of 24–26 each and were handled daily to get them accustomed to human touch. At 42 days of age the rats were shifted to the test diet. Control group and MNU only group were fed with Teklad (powdered diet) only. MNU/Auraptene 200 ppm group and MNU/Auraptene 500 ppm group received 200 ppm and 500 ppm of auraptene respectively, mixed in the diet for the duration of the study. The doses were selected from the pilot study conducted with a small number of animals. In addition to the 200 ppm dose of auraptene, which indicated the chemopreventive effect of auraptene, a higher dose of auraptene at 500 ppm was added to this study to see any increased chemopreventive effects. Auraptene has been administered in diet at 100 ppm and 500 ppm in other models of cancer. The diet was prepared once a week and stored in cold room. The food was replaced on Monday, Wednesday and Friday or as needed. […] At 50 days of age all the groups except the control group received intraperitoneal MNU injection (50 mg/kg bw in sterile acidified saline). The control group received vehicle only. […] Any tumors felt during palpation were recorded by location. […]
The rat body weight data was compared between groups by One-Way ANOVA followed by Tukey test. […] The cell proliferation assays and western blot data were analyzed by One-Way ANOVA followed by Tukey test.

With `CC(C)=CCC/C(C)=C/COc1ccc2ccc(=O)oc2c1` [auraptene], the “average concentration in normal mammary glands” value in series [1] (200 ppm in diet) came out at 1.4 ± 0.5 µM; in series [1] (500 ppm in diet) it was 1.8 ± 0.3 µM. The average concentration in livers in series [1] (500 ppm in diet, mean, n = 2) came to 0.87 µM. For the same compound, the “effect on rat body weight” value in series [2] (200 and 500 ppm in diet, MNU treated groups) is listed as “did not significantly affect body weight”. The tolerability in rats entry in series [2] (dietary auraptene up to 500 ppm, no observable change in gross behavior, no significant weight loss) was “well tolerated”.
